Experiments:
Assay type in all cases: in vivo
[1] = tested on: PLCβ4 knock-out mouse; assay: Change of SWD after injection of PKC agonist or calcium channel blocker into the thalamus relay nuclei, EEG measurement
[2] = tested on: PLCβ4 knock-out mouse; assay: Sensitivity to absence seizure inducing agents (GABAB receptor agonists), EEG measurement; settings: PLCβ4 knock-out mouse compared with normal mouse
[3] = tested on: PLCβ4 knock-out mouse; assay: SWD reduction by ethosuximide, EEG measurement; settings: 200 mg/kg intraperitoneal, EEG recorded 1 hour, starting 30 minutes after injection, compared with NaCl control
[4] = 10 pmol injected into thalamus relay nuclei, compared with before / 0.9% NaCl

CCCCCCCCCC(=O)O[C@@H]1[C@@H](C)[C@@]2(O)[C@@H](C=C(CO)C[C@]3(O)C(=O)C(C)=C[C@@H]23)[C@@H]2C(C)(C)[C@]12OC(=O)CCCCCCCCC [PDD, phorbol 12,13-didecanoate]
SWD (hourly number) in EEG [1, 4]: significantly reduced | SWD (hourly number) in EEG ([1]; 10 pmol injected into thalamus relay nuclei, compared with before / 0.9% NaCl, listed as phorbol 12,13-didecanoate): reduced

CCCCCCCCCCCCCC(=O)O[C@@H]1[C@@H](C)[C@@]2(O)[C@@H](C=C(CO)C[C@]3(O)C(=O)C(C)=C[C@@H]23)[C@@H]2C(C)(C)[C@]12OC(C)=O [PMA, phorbol 12-myristate 13-acetate]
SWD (hourly number) in EEG [1, 4]: significantly reduced | SWD (hourly number) in EEG ([1]; 10 pmol injected into thalamus relay nuclei, compared with before / 0.9% NaCl, listed as phorbol 12-myristate 13-acetate): reduced

O=C1CCCO1 [γ-butyrolactone]
absence seizure specific SWD ([2]; after absence seizure inducing drug): increased | duration of paroxysmal SWD after drug administration ([2]; intraperitoneal, γ-butyrolactone 40 or 70 mg/kg, RS(+/−)-baclofen 20 mg/kg): continued even longer

COCC(=O)O[C@]1(CCN(C)CCCc2nc3ccccc3[nH]2)CCc2cc(F)ccc2[C@@H]1C(C)C [mibefradil]
SWD (hourly number) in EEG ([1]; 1 nmol injected into thalamus relay nuclei): significantly reduced

CCC1(C)CC(=O)NC1=O (centres unmarked) [ethosuximide]
SWD (spike-and-wave discharge) in EEG [3]: significantly reduced
